The experiment has as its target T1, catalytic domain of human Bub1 (amino acids 704-1085) (Homo sapiens, UniProt O43683).
T1 construct: catalytic domain of human Bub1 (amino acids 704-1085); His6 (N); made in house; host or cells: Hi5 insect cells
Briefly: Bub1 kinase assay (TR-FRET). In kind it is biochemical. Particulars: TR-FRET; ATP 10 μM, peptide substrate 1 μM; 60 min at 22° C.; average or median if tested more than once; read-out: Inhibition of Bub1 kinase IC50. The text has this: Bub1-inhibitory activities of compounds described in the present invention were quantified using a time-resolved fluorescence energy transfer (TR-FRET) kinase assay which measures phosphorylation of the synthetic peptide Biotin-Ahx-VLLPKKSFAEPG (C-terminus in amide form), purchased from e.g. Biosyntan (Berlin, Germany) by the (recombinant) catalytic domain of human Bub1 (amino acids 704-1085), expressed in Hi5 insect cells with an N-terminal His6-tag and purified by affinity—(Ni-NTA) and size exclusion chromatography.
In a typical assay 11 different concentrations of each compound (0.1 nM, 0.33 nM, 1.1 nM, 3.8 nM, 13 nM, 44 nM, 0.15 μM, 0.51 μM, 1.7 μM, 5.9 μM and 20 μM) were tested in duplicate within the same microtiter plate. To this end, 100-fold concentrated compound solutions (in DMSO) were previously prepared by serial dilution (1:3.4) of 2 mM stocks in a clear low volume 384-well source microtiter plate (Greiner Bio-One, Frickenhausen, Germany), from which 50 nl of compounds were transferred into a black low volume test microtiter plate from the same supplier. Subsequently, 2 μL of Bub1 (the final concentration of Bub1 was adjusted depending on the activity of the enzyme lot in order to be within the linear dynamic range of the assay: typically ˜200 ng/mL were used) in aqueous assay buffer [50 mM Tris/HCl pH 7.5, 10 mM magnesium chloride (MgCl2), 200 mM potassium chloride (KCl), 1.0 mM dithiothreitol (DTT), 0.1 mM sodium ortho-vanadate, 1% (v/v) glycerol, 0.01% (w/v) bovine serum albumine (BSA), 0.005% (v/v) Trition X-100 (Sigma), 1× Complete EDTA-free protease inhibitor mixture (Roche)] were added to the compounds in the test plate and the mixture was incubated for 15 min at 22° C. to allow pre-equilibration of the putative enzyme-inhibitor complexes before the start of the kinase reaction, which was initiated by the addition of 3 μL 1.67-fold concentrated solution (in assay buffer) of adenosine-tri-phosphate (ATP, 10 μM final concentration) and peptide substrate (1 μM final concentration). The resulting mixture (5 μL final volume) was incubated at 22° C. during 60 min., and the reaction was stopped by the addition of 5 μL of an aqueous EDTA-solution (50 mM EDTA, in 100 mM HEPES pH 7.5 and 0.2% (w/v) bovine serum albumin) which also contained the TR-FRET detection reagents (0.2 μM streptavidin-XL665 [Cisbio Bioassays, Codolet, France] and 1 nM anti-phospho-Serine antibody [Merck Millipore, cat. #35-002] and 0.4 nM LANCE EU-W1024 labeled anti-mouse IgG antibody [Perkin-Elmer, product no. AD0077, alternatively a Terbium-cryptate-labeled anti-mouse IgG antibody from Cisbio Bioassays can be used]). The stopped reaction mixture was further incubated 1 h at 22° C. in order to allow the formation of complexes between peptides and detection reagents. Subsequently, the amount of product was evaluated by measurement of the resonance energy transfer from the Eu-chelate-antibody complex recognizing the Phosphoserine residue to the streptavidin-XL665 bound to the biotin moiety of the peptide. To this end, the fluorescence emissions at 620 nm and 665 nm after excitation at 330-350 nm were measured in a TR-FRET plate reader, e.g. a Rubystar or Pherastar (both from BMG Labtechnologies, Offenburg, Germany) or a Viewlux (Perkin-Elmer) and the ratio of the emissions (665 nm/[…]) was taken as indicator for the amount of phosphorylated substrate. The data were normalised using two sets of control wells for high—(=enzyme reaction without inhibitor=0%=Minimum inhibition) and low—(=all assay components without enzyme=100%=Maximum inhibition) Bub1 activity. IC50 values were calculated by fitting the normalized inhibition data to a 4-parameter logistic equation (Minimum, Maximum, IC50, Hill; Y=Max+(Min−Max)/(1+(X/IC50)Hill)).
Background: TR-FRET usually uses a lanthanide donor and a delayed reading to cut background.
T1 sequence (O43683 704-1085): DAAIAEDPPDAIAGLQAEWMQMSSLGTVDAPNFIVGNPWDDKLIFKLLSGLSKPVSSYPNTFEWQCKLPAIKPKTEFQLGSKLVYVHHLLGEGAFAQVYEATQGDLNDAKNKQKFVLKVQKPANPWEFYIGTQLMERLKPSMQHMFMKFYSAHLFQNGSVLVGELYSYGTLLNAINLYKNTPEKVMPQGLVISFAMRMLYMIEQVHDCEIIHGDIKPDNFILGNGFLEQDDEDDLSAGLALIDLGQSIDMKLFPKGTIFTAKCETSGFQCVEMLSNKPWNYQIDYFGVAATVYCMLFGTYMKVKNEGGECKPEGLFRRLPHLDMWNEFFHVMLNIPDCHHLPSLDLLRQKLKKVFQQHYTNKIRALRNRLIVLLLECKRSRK
For the compound `COc1ccc(C(=O)Nc2cc(-c3[nH]c4c(c3Nc3ccccc3)C(=O)CN(C(=O)SC(C)(C)C)C4)ccn2)cc1F` [Example 305, S-tert-butyl 3-anilino-2-{2-[(3-fluoro-4-methoxybenzoyl)amino]pyridin-4-yl}-4-oxo-1,4,5,7-tetrahydro-6H-pyrrolo[2,3-c]pyridine-6-carbothioate], the IC50 (usually the point on the concentration scale where inhibition reaches its midpoint) amounted to 233 nM. Under `CC(=O)Nc1cc(-c2[nH]c3c(c2Nc2ccccc2)C(=O)CN(C(=O)c2cnco2)C3)ccn1` [Example 176, N-{4-[3-Anilino-6-(1,3-oxazol-5-ylcarbonyl)-4-oxo-4,5,6,7-tetrahydro-1H-pyrrolo[2,3-c]pyridin-2-yl]pyridin-2-yl}acetamide] stands 16 nM.

Consider `CC(C)(C)OC(=O)N1CC(=O)c2c([nH]c(-c3ccnc(NC(=O)c4cnn[nH]4)c3)c2Nc2ccccc2)C1` [Example 274, tert-Butyl 4-oxo-3-(phenylamino)-2-2-[(1H-1,2,3-triazol-5-ylcarbonyl)amino]pyridin-4-yl-1,4,5,7-tetrahydro-6H-pyrrolo[2,3-c]pyridine-6-carboxylate], for which the half-inhibitory concentration (IC50) amounted to 10 nM. The value for `CC(C)OC(=O)N1CC(=O)c2c([nH]c(-c3ccnc(NC(=O)[C@H]4C[C@H]4F)c3)c2Nc2ccccc2)C1` (relative stereo) [Example 157, Isopropyl 3-anilino-2-[2-({[rel-(1R,2R)-2-fluorocyclopropyl]carbonyl}amino)pyridin-4-yl]-4-oxo-1,4,5,7-tetrahydro-6H-pyrrolo[2,3-c]pyridine-6-carboxylate] was 7 nM; that for `CC(=O)Nc1cc(-c2[nH]c3c(c2Nc2ccccc2)C(=O)CN(C(=O)c2ccccn2)C3)ccn1` [Example 114, N-{4-[4-Oxo-3-(phenylamino)-6-(pyridin-2-ylcarbonyl)-4,5,6,7-tetrahydro-1H-pyrrolo[2,3-c]pyridin-2-yl]pyridin-2-yl}acetamide] was 63 nM; that for `O=C1CN(S(=O)(=O)c2cnc[nH]2)Cc2[nH]c(-c3ccnc(NC(=O)C4CC4(F)F)c3)c(Nc3ccccc3)c21` (racemic) [Example 164, (1RS)—N-{4-[3-Anilino-6-(1H-imidazol-5-ylsulfonyl)-4-oxo-4,5,6,7-tetrahydro-1H-pyrrolo[2,3-c]pyridin-2-yl]pyridin-2-yl}-2,2-difluorocyclopropanecarboxamide] was 6 nM. Under `O=C1CNCc2[nH]c(-c3ccncc3OCC3CC3)c(Nc3ccccc3)c21` [Example 227, 3-anilino-2-[3-(cyclopropylmethoxy)pyridin-4-yl]-1,5,6,7-tetrahydro-4H-pyrrolo[2,3-c]pyridin-4-one] stands 140 nM.

Take `COC(=O)N1CC(=O)c2c([nH]c(-c3ccncc3)c2Nc2ccccc2)C1` [Example 18, Methyl 4-oxo-3-(phenylamino)-2-(pyridin-4-yl)-1,4,5,7-tetrahydro-6H-pyrrolo[2,3-c]pyridine-6-carboxylate]: the half-inhibitory concentration (IC50) stood at 6 nM. The value for `CC(C)(C)OC(=O)N1CC(=O)c2c([nH]c(-c3ccncc3Br)c2Nc2ccccc2)C1` [Example 100, tert-Butyl 2-(3-bromopyridin-4-yl)-4-oxo-3-(phenylamino)-1,4,5,7-tetrahydro-6H-pyrrolo[2,3-c]pyridine-6-carboxylate] was 26 nM; that for `CC(=O)Nc1cc(-c2[nH]c3c(c2Nc2ccccc2)C(=O)CN(C(=O)C2CCN(C)CC2)C3)ccn1` [Example 191, N-(4-{3-Anilino-6-[(1-methylpiperidin-4-yl)carbonyl]-4-oxo-4,5,6,7-tetrahydro-1H-pyrrolo[2,3-c]pyridin-2-yl}pyridin-2-yl)acetamide] was 143 nM. The value for `CC(=O)Nc1cc(-c2[nH]c3c(c2Nc2ccccc2)C(=O)CN(C(=O)CC(F)(F)F)C3)ccn1` [Example 169, N-{4-[3-Anilino-4-oxo-6-(3,3,3-trifluoropropanoyl)-4,5,6,7-tetrahydro-1H-pyrrolo[2,3-c]pyridin-2-yl]pyridin-2-yl}acetamide] was 5 nM; that for `O=C(Nc1cc(-c2[nH]c3c(c2Nc2ccccc2)C(=O)CN(S(=O)(=O)c2cnc[nH]2)C3)ccn1)c1ccc(F)cc1` [Example 160, N-{4-[3-Anilino-6-(1H-imidazol-5-ylsulfonyl)-4-oxo-4,5,6,7-tetrahydro-1H-pyrrolo[2,3-c]pyridin-2-yl]pyridin-2-yl}-4-fluorobenzamide] was 4 nM; that for `Cc1nccc(-c2[nH]c3c(c2Nc2ccccc2)C(=O)CN(S(C)(=O)=O)C3)n1` [Example 29, 2-(2-Methylpyrimidin-4-yl)-6-(methylsulfonyl)-3-(phenylamino)-1,5,6,7-tetrahydro-4H-pyrrolo[2,3-c]pyridin-4-one] was 24 nM. The value for `COc1cnccc1-c1[nH]c2c(c1Nc1ccccc1)C(=O)CN(C(=O)C1CC1)C2` [Example 108, 6-(Cyclopropylcarbonyl)-2-(3-methoxypyridin-4-yl)-3-(phenylamino)-1,5,6,7-tetrahydro-4H-pyrrolo[2,3-c]pyridin-4-one] was 8 nM; that for `CC(=O)N1CC(=O)c2c([nH]c(-c3ccncc3OCCN(C)C)c2Nc2ccccc2)C1` [Example 278, 6-Acetyl-2-3-[2-(dimethylamino)ethoxy]pyridin-4-yl-3-(phenylamino)-1,5,6,7-tetrahydro-4H-pyrrolo[2,3-c]pyridin-4-one] was 23 nM. With `COc1cc(C(=O)Nc2cc(-c3[nH]c4c(c3Nc3ccccc3)C(=O)CN(C(=O)N3CCCC3)C4)ccn2)ccc1F` [Example 262, 4-Fluoro-3-methoxy-N-4-[4-oxo-3-(phenylamino)-6-(pyrrolidin-1-ylcarbonyl)-4,5,6,7-tetrahydro-1H-pyrrolo[2,3-c]pyridin-2-yl]pyridin-2-ylbenzamide], the IC50 came to 8 nM. Take `O=C1CN(C(=O)NC2CC2)Cc2[nH]c(-c3ccncc3)c(Nc3ccccc3)c21` [Example 84, N-Cyclopropyl-4-oxo-3-(phenylamino)-2-(pyridin-4-yl)-1,4,5,7-tetrahydro-6H-pyrrolo[2,3-c]pyridine-6-carboxamide]: the 50% inhibitory concentration (IC50) was determined as 9 nM. In the case of `COc1cnccc1-c1[nH]c2c(c1Nc1ccccc1)C(=O)CNC2` [Example 103, 2-(3-Methoxypyridin-4-yl)-3-(phenylamino)-1,5,6,7-tetrahydro-4H-pyrrolo[2,3-c]pyridin-4-one], the IC50 amounted to 138 nM. Under `CC(=O)Nc1cc(-c2[nH]c3c(c2Nc2ccccc2)C(=O)CN(C(=O)CCC(C)(C)C)C3)ccn1` [Example 179, N-{4-[3-Anilino-6-(4,4-dimethylpentanoyl)-4-oxo-4,5,6,7-tetrahydro-1H-pyrrolo[2,3-c]pyridin-2-yl]pyridin-2-yl}acetamide] stands 63 nM; under `CC(C)(C)OC(=O)N1CC(=O)c2c([nH]c(-c3ccncc3)c2Nc2ccccc2)C1` [Example 3, tert-Butyl 4-oxo-3-(phenylamino)-2-(pyridin-4-yl)-1,4,5,7-tetrahydro-6H-pyrrolo[2,3-c]pyridine-6-carboxylate], 10 nM; under `CN(C)C(=O)N1CC(=O)c2c([nH]c(-c3ccncc3OCC(F)F)c2Nc2ccccc2)C1` [Example 238, 2-[3-(2,2-Difluoroethoxy)pyridin-4-yl]-N,N-dimethyl-4-oxo-3-(phenylamino)-1,4,5,7-tetrahydro-6H-pyrrolo[2,3-c]pyridine-6-carboxamide], 8 nM.

(Values after patent publication US20200216439A1, “HETERO-1,5,6,7-TETRAHYDRO-4H-INDOL-4-ONES” (BAYER PHARMA AKTIENGESELLSCHAFT, priority 2015, published 2020).)
